From patent publication US5631263A, “Use of delta opioid receptor antagonists to treat immunoregulatory disorders” (Minneapolis Medical Research Foundation, priority 1995, dated 1997)
Counter-ions that a name gives are not always drawn.

Assays:
δ opioid receptor = target: T1, δ opioid receptor (Mus musculus, UniProt P32300); experiment: antagonism of DADLE on MVD preparations (Example 7); type: cell-based; details: for IC50 ratio (DADLE): MVD, 100 nM of each compound, NTI = 20 nM, 15 min
T1 construct: Both vasa deferentia were dissected out of mice; from tissue; host or cells: mouse vas deferens (isolated, electrically stimulated)
T1 sequence (P32300 whole entry): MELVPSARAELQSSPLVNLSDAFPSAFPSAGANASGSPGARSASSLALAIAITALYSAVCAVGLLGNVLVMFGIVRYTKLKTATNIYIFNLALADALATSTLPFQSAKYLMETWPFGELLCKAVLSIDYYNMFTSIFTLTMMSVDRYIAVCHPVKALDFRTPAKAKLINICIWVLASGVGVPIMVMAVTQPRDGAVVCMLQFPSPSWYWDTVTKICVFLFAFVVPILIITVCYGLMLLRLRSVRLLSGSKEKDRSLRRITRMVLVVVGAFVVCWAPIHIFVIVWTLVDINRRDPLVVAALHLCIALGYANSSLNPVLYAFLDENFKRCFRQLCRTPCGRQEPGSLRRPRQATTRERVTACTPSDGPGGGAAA
Method: 2. Mouse Vas Deferens (MVD). […] The organ bath was maintained at 37° C.
Concentration-response curves were obtained in the absence (control) and the presence of the antagonist are expressed as IC50 values. […] Therefore, a high IC50 ratio represents a correspondingly high degree of antagonism at a particular receptor. […] Therefore, a low Ke represents a correspondingly high degree of binding at a particular receptor.

mu opioid receptors = target: mu opioid receptors; design: key to Ke, M: No agonist antagonism observed; details: GPI, cited from earlier work; for Kb: read-out: Ke, M (morphine), agonist morphine, antagonist 100 or 200 nM, 15 min
kappa opioid receptors = target: kappa opioid receptors; design: key to Ke, EK: No agonist antagonism observed; details: GPI, cited from earlier work; for Kb: agonist ethylketazocine, antagonist 100 or 200 nM, 15 min, read-out: Ke, EK
delta opioid receptors [1] = target: T2, delta opioid receptors (Mus musculus, UniProt P32300); design: key: No agonist antagonism observed; details: MVD; compound 7 tested at 5 nM or less; cited from earlier work
T2 sequence (P32300 whole entry): as above

[2] = test system: mouse vas deferens (MVD) and guinea pig ileum (GPI) preparations; details: cited from earlier work
μ opioid receptor = μ opioid receptor (Cavia porcellus, UniProt A0ACM8Q262); experiment: antagonism of morphine in the GPI (Example 7); type: cell-based, guinea pig; details: morphine as agonist, read-out: Ke, μ (Table VII)
Chain of μ opioid receptor (A0ACM8Q262 1-400): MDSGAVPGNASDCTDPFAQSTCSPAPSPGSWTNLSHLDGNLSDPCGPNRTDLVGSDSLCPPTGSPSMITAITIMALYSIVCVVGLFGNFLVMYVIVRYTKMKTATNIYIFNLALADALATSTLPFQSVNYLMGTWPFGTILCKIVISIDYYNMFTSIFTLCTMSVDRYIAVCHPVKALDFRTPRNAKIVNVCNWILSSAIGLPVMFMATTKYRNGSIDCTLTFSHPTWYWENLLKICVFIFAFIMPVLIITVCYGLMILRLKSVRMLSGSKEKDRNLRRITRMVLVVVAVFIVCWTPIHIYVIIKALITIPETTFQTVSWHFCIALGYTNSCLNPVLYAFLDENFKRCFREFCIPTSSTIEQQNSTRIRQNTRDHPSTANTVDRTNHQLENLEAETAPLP
Method: 1. Guinea Pig Ileal Longitudinal Muscle (GPI). Ilea from guinea pigs were taken approximately 10 cm from the ileocaecal junction, and a strip of longitudinal muscle with the myenteric plexus attached was prepared by method of Rang et al., Brit. J. Pharmacol., 22, 356 (1964), the disclosure of which is incorporated by reference herein. A 1 cm portion of this strip was then mounted between two platinum electrodes placed in a 10 ml organ bath and connected to an isometric transducer. Contractions were recorded on a polygraph. […] The organ bath was maintained at 36°-37° C. The longitudinal muscle strip was allowed to equilibrate with continuous stimulation for a minimum of 90 min.

guinea pig ileum (GPI) = details: standard result; cited from earlier work
delta opioid receptors [3] = target: T2, delta opioid receptors; experiment: antagonism of DADLE in the mouse vas deferens (MVD) preparation; details: compared with 1 or its congeners
Method: Mouse Vas Deferens (MVD). […] Both vasa deferentia were dissected out of mice and mounted singly through two platinum ring electrodes in a 10 ml organ bath. The bath contained Krebs bicarbonate solution that was continuously bubbled with 95% O2 and 5% CO2. The organ bath was maintained at 37° C. The tissue was attached to an isometric transducer and stimulated transmurally with rectangular pulses (0.1 Mz, 1 ms duration, supramaximal voltage). Drugs were added cumulatively to the bath in 10- to 50-μL amounts and washed out after noting their maximum effect.
The compounds were tested in vitro on the mouse vas deferens (MVD) and guinea pig ileum (GPI) preparations. […] The IC50 value was divided by the control IC50 value in the same tissue, and this IC50 ratio (DR) was employed to calculate the Ke value using the equation Ke=[antagonist]/(DR-1).

[4] = compound 7 tested at 5 nM or less

SMILES: O=C1/C(=C/c2ccc([N+](=O)[O-])cc2)C[C@@]2(O)[C@H]3Cc4ccc(O)c5c4[C@@]2(CCN3CC2CC2)[C@H]1O5 [IIa, E-7-(4-Nitrobenzylideno)naltrexone hydrochloride]
- Kb (δ opioid receptor): 111 nM
- IC50 ratio (DADLE) (δ opioid receptor): 1.90

SMILES: O=C1/C(=C/c2cccc([N+](=O)[O-])c2)C[C@@]2(O)[C@H]3Cc4ccc(O)c5c4[C@@]2(CCN3CC2CC2)[C@H]1O5 [IIb]
- Kb (δ opioid receptor): 20 nM
- IC50 ratio (DADLE) (δ opioid receptor): 5.97

SMILES: Cc1cccc2c3c([nH]c12)[C@@H]1Oc2c(O)ccc4c2[C@@]12CCN(CC1CC1)[C@H](C4)[C@]2(O)C3 [Compound 13]
- Kb (mu opioid receptors): 19.1 nM
- Kb (kappa opioid receptors): > 330 nM

SMILES: O=C1/C(=C/c2ccc(F)cc2)C[C@@]2(O)[C@H]3Cc4ccc(O)c5c4[C@@]2(CCN3CC2CC2)[C@H]1O5 [IIg]
- Kb (δ opioid receptor): 77 nM
- IC50 ratio (DADLE) (δ opioid receptor): 2.29

SMILES: COc1ccc2[nH]c3c(c2c1)C[C@@]1(O)[C@H]2Cc4ccc(O)c5c4[C@@]1(CCN2CC1CC1)[C@H]3O5 [Compound 4]
- Kb (mu opioid receptors): 63 nM
- Kb (kappa opioid receptors): 12.6 nM

SMILES: Cn1c2c(c3ccccc31)C[C@@]1(O)[C@H]3Cc4ccc(O)c5c4[C@@]1(CCN3CC1CC1)[C@H]2O5 [Compound 2]
- Kb (mu opioid receptors): 12.5 nM
- Kb (kappa opioid receptors): 22.2 nM

SMILES: O=[N+]([O-])c1ccc2[nH]c3c(c2c1)C[C@@]1(O)[C@H]2Cc4ccc(O)c5c4[C@@]1(CCN2CC1CC1)[C@H]3O5 [Compound 6]
- Kb (mu opioid receptors): 92 nM
- Kb (kappa opioid receptors): ≥ 200 nM

SMILES: Oc1ccc2c3c1O[C@H]1c4[nH]c5cccc(F)c5c4C[C@@]4(O)[C@@H](C2)N(CC2CC2)CC[C@]314 [Compound 10]
- Kb (mu opioid receptors): > 125 nM
- Kb (kappa opioid receptors): > 170 nM

SMILES: CN1CC[C@]23c4c5ccc(O)c4O[C@H]2c2[nH]c4ccccc4c2C[C@@]3(O)[C@H]1C5 [Compound 7]
- Ke, DADLE (delta opioid receptors [1]): e
- Ke, M (mu opioid receptors; [4]): e
- Ke, EK (kappa opioid receptors; [4]): e
- antagonist activity of compound 7 ([2]; at 5 nM): inactive
- agonist activity ([2]; in words): partial agonist activity

SMILES: O=C1CC[C@@]2(O)[C@H]3Cc4ccc(O)c5c4[C@@]2(CCN3CC2CC2)[C@H]1O5 [Naltrexone, naltrexone, reference compound]
- Kb (μ opioid receptor): 1 nM
- block of morphine's effects (guinea pig ileum (GPI)): block morphine's effects

SMILES: Oc1ccc2c3c1O[C@H]1c4[nH]c5ccc(F)cc5c4C[C@@]4(O)[C@@H](C2)N(CC2CC2)CC[C@]314 [Compound 3]
- Kb (mu opioid receptors): 61.7 nM
- Kb (kappa opioid receptors): 46.2 nM

SMILES: Oc1ccc2c3c1O[C@H]1c4nc5ccccc5cc4C[C@@]4(O)[C@@H](C2)N(CC2CC2)CC[C@]314 [Compound 17]
- Kb (mu opioid receptors): 11.3 nM
- delta antagonist potency / selectivity in words (delta opioid receptors [3]): A similar relationship was observed
- Kb (kappa opioid receptors): 16.3 nM

SMILES: O=C1/C(=C/c2ccc3ccccc3c2)C[C@@]2(O)[C@H]3Cc4ccc(O)c5c4[C@@]2(CCN3CC2CC2)[C@H]1O5 [IIm]
- Kb (δ opioid receptor): 9.4 nM
- IC50 ratio (DADLE) (δ opioid receptor): 11.6

SMILES: O=C1/C(=C/c2cccc(F)c2)C[C@@]2(O)[C@H]3Cc4ccc(O)c5c4[C@@]2(CCN3CC2CC2)[C@H]1O5 [IIh]
- Kb (δ opioid receptor): 14 nM
- IC50 ratio (DADLE) (δ opioid receptor): 7.87

SMILES: Oc1ccc2c3c1O[C@H]1c4oc5ccccc5c4C[C@@]4(O)[C@@H](C2)N(CC2CC2)CC[C@]314 [Compound 8, (17-cyclopropylmethyl)-6,7-dehydro-3,14β-dihydroxy-4,5α-epoxy-6,7-2',3'-benzo[b]furanomorphinan]
- Kb (mu opioid receptors): 30.8 nM
- delta antagonist potency / selectivity in words (delta opioid receptors [3]): less potent and less selective than 1 as a delta antagonist, nevertheless retains substantial delta antagonist activity
- Kb (kappa opioid receptors): 50.8 nM

SMILES: COc1ccc(/C=C2\C[C@@]3(O)[C@H]4Cc5ccc(O)c6c5[C@@]3(CCN4CC3CC3)[C@@H](O6)C2=O)cc1 [IIc]
- Kb (δ opioid receptor): 22 nM
- IC50 ratio (DADLE) (δ opioid receptor): 5.52

SMILES: Cc1ccc2[nH]c3c(c2c1)C[C@@]1(O)[C@H]2Cc4ccc(O)c5c4[C@@]1(CCN2CC1CC1)[C@H]3O5 [Compound 5]
- Kb (mu opioid receptors): > 160 nM
- Kb (kappa opioid receptors): > 250 nM

SMILES: Oc1ccc2c3c1O[C@H]1c4nc5ccccc5nc4C[C@@]4(O)[C@@H](C2)N(CC2CC2)CC[C@]314 [Compound 16]
- Kb (mu opioid receptors): 6.1 nM
- delta antagonist potency / selectivity in words (delta opioid receptors [3]): A similar relationship was observed
- Kb (kappa opioid receptors): 13.4 nM

SMILES: COc1ccccc1/C=C1\C[C@@]2(O)[C@H]3Cc4ccc(O)c5c4[C@@]2(CCN3CC2CC2)[C@@H](O5)C1=O [IIe]
- Kb (δ opioid receptor): 0.84 nM
- IC50 ratio (DADLE) (δ opioid receptor): 120

SMILES: COc1cccc2c3c([nH]c12)[C@@H]1Oc2c(O)ccc4c2[C@@]12CCN(CC1CC1)[C@H](C4)[C@]2(O)C3 [Compound 14]
- Kb (mu opioid receptors): 35 nM

SMILES: O=C1/C(=C/c2ccccc2F)C[C@@]2(O)[C@H]3Cc4ccc(O)c5c4[C@@]2(CCN3CC2CC2)[C@H]1O5 [IIi]
- Kb (δ opioid receptor): 20 nM
- IC50 ratio (DADLE) (δ opioid receptor): 6.01

SMILES: Oc1ccc2c3c1O[C@H]1c4[nH]c5c(F)cccc5c4C[C@@]4(O)[C@@H](C2)N(CC2CC2)CC[C@]314 [Compound 11]
- Kb (mu opioid receptors): 5.3 nM
- Kb (kappa opioid receptors): > 330 nM

SMILES: O=C1/C(=C/c2ccccc2Cl)C[C@@]2(O)[C@H]3Cc4ccc(O)c5c4[C@@]2(CCN3CC2CC2)[C@H]1O5 [IIj]
- Kb (δ opioid receptor): 0.76 nM
- IC50 ratio (DADLE) (δ opioid receptor): 130

SMILES: O=C1/C(=C/c2cccc3ccccc23)C[C@@]2(O)[C@H]3Cc4ccc(O)c5c4[C@@]2(CCN3CC2CC2)[C@H]1O5 [IIl]
- Kb (δ opioid receptor): 8.5 nM
- IC50 ratio (DADLE) (δ opioid receptor): 12.7

SMILES: Oc1ccc2[nH]c3c(c2c1)C[C@@]1(O)[C@H]2Cc4ccc(O)c5c4[C@@]1(CCN2CC1CC1)[C@H]3O5 [Compound 9]
- Kb (mu opioid receptors): 27.2 nM
- Kb (kappa opioid receptors): 68.5 nM
